From US8957086B2, “Compounds and methods of treating brain disorders” (The Board of Trustees of the University of Illinois, priority 2010, dated 2015)
“Also recorded” adds a separate entry of the source.

Key:
[1] = Stability in phosphate buffer (pH 7.4) monitored using HPLC; assay type: physicochemical; conditions: pH 7.4, HPLC
Text: The stability of compounds of structural formula (II) in phosphate buffer (pH 7.4) was monitored using HPLC.

[2] = Brain penetration in WT mice after i.p. injection, LC-MS (MRM); assay type: in vivo; conditions: i.p. 1 mg/kg, S/N ratio
Experimental: Compounds of structural formula (II), i.e., GN-29 and GN-205, were tested for an ability to penetrate the brain. WT mice were given an i.p. injection at a dose of 1 mg/kg, which is equivalent to transgenic mice studies. The presence of drugs in brain tissue was measured by LC-MS using MRM methods.

[3] = tested on: CREB phosphorylated at serine 133; test: CREB phosphorylated at serine 133 in LaFerla 3×Tg AD mice; assay type: in vivo; conditions: 11 week treatment
Text: (§1) Amyloid load also was reduced by drug treatment (data not shown).

LaFerla 3×Tg AD Mice = test: STPA latency in LaFerla 3×Tg AD mice after 11 week treatment; assay type: in vivo; conditions: for latency after 24 h in STPA: 11 week treatment
TNF-α = TNF-α ELISA on cortical/hippocampal protein homogenates of LaFerla 3×Tg AD mice; assay type: in vivo; conditions: 11 week treatment
Text: as §1

[4] = tested on: primary cortical cultures treated with human Aβ1-42; test: Neuroprotection in primary neurons treated with Aβ42 oligomers, with picrotoxin preincubation (MTT, LDH); assay type: cell-based; conditions: 100 μM picrotoxin 1 h preincubation, test compounds 50 μM, Aβ1-42 250 nM, 5 days
Experimental: FIGS. 3A and 3B illustrate neuroprotection in response to amyloid neurotoxicity afforded by compounds of structural formula (I). FIGS. 3A and 3B show neuroprotection in primary neurons treated with Aβ42. In particular, primary cortical cultures at 10-11 DIV were preincubated with 100 μM of picrotoxin for one hour, then perfused with test compounds at 50 μM. Soluble oligomers of human Aβ1-42 then were added at a physiologically relevant concentration of 250 nM. Cultures then were incubated for 5 days, after which time MTT and LDH assays were performed. Results were normalized to untreated DMSO and treated DMSO and statistical analysis was performed with ANOVA, with post-hoc Dunnet's MCT comparing to untreated DMSO, […], ***=p<0.001. Picrotoxin acts as a noncompetitive antagonist for the GABAA receptor chloride channels. It is therefore a channel blocker rather than a receptor antagonist.

scopolamine treated mice = test: Step through passive avoidance (STPA) in scopolamine treated mice; assay type: in vivo; conditions: i.p.
Text: The scopolamine treatment results in mice having an attenuated cognitive function. STPA (step through passive avoidance task) is widely used to test long-term memory. The STPA apparatus consists of a two-compartment acrylic box with an illuminated side (15×12×12 cm) connected to a dark side (15×12×12 cm) by a vertical door. The dark side is equipped with an electric grid floor. During the habituation, animals were habituated to the normal behavior of rapidly translocating to the dark from the light side, where they were initially placed. Habituation trials are continued until latency of entering the dark side for each animal is less than 30 seconds. Animals that cannot pass this screening phase are excluded from the study. During the training, animals were trained by receiving an aversive electrical shock (0.5 mA, 2 sec), triggered by entry to the dark compartment, until the latency of entering the dark side reach 300 seconds. At 24 and 72 hours post-training, the animals again are individually placed in the light compartment and the latency to enter the dark compartment, without shock stimulus, is recorded. Statistical analysis of the latency data was performed with one-way ANOVA followed by Bonferroni multiple comparison test. For STPA tests using naïve animals, each animal was administered two ip injections. […]

[5] = tested on: primary rat glial cultures; test: Attenuation of inflammatory response (nitrite production, Griess assay) in LPS-treated primary rat glial cultures; assay type: cell-based; conditions: primary rat glial cells, LPS/OGD, nitrite by Griess assay
Experimental: Attenuation of cytokine and inflammatory response by compounds of structural formula (I) were measured by induction of NOS reflected by inhibition of nitrite production in LPS/IFNγ treated primary rat glial cultures.
Primary mixed glia cultures were obtained as described previously (Vairano et al., 2002). Briefly, 1-2 day old Sprague Dawley rat pups were used to prepare primary mixed glial cultures. Cortices were dissected and meninges were removed. Tissues were cut into small pieces and transferred into PBS (without Ca^2+ and Mg^2+) containing 0.125% Trypsin and DNAse 35500 KU/ml, then incubated at 37° C. for 20 min. The cells were dissociated mechanically resuspended in DMEM (10% FBS), then grown in a T-75 flask. After 11-13 days in culture, the cells were replated at 2×10^5 cells/cm^2 in 96-well plates. Cells were used the next day.
Primary cultured cortical glia were incubated with LPS ([…]) in deoxygenated, glucose-free solution, pH 7.4, containing the following (in mM): NaCl 116, CaCl2 1.8, MgSO4 0.8, KCl 5.4, NaH2PO4 1, NaHCO3 14.7, HEPES 10. The cells were placed in a humidified 37° C. incubator (95% N2, 5% CO2) for 2 hours, then conditioned DMEM media containing LPS or PBS were given back to the cells. The tested compounds ([…]) or MAPK inhibitor (SB203580, […]) were present during and after the OGD. […] Cell viability was measured later by MTT assay. […]

[6] = tested on: primary rat cortical neuron cultures; test: Neuroprotection in primary rat cortical neuron cultures subjected to oxygen-glucose deprivation (OGD), MTT and LDH; assay type: cell-based; conditions: primary cultured rat cortical neurons, OGD 2 h + 24 h reoxygenation, 50 μM
Experimental: Neuroprotection by compounds of structural formula (I) in neurons using oxygen-glucose deprivation (OGD) followed by recovery for 24 hours in primary rat cortical neuron cultures, measured by LDH release and MTT viability was determined (FIG. 1).
Test compounds are compared to vehicle controls and the known neuroprotective agent CMZ. DMSO is dimethyl sulfoxide. Neuroprotection is represented by (i) a high cell viability relative to control as measured by the MIT assay and (ii) a low LDH activity as measured by assay of LDH. The abscissa in FIGS. 1A and 1B identify the compounds tested by GN number. The structures of AR-OH (also referred to as #00) and AR-N3 (also referred to as #9 or GN-9) are provided above. The structure of AR (also referred to as #10) and CMZ are as follows: […]
FIG. 1A illustrates the evaluation of neuroprotection in primary neurons subject to transient OGD assayed by MTT. […] Cell viability was measured 24 hours after reperfusion by MTT assay. Cell viability percentage was calculated relative to 100% protection from CMZ against OGD-reperfusion injury. […]
FIG. 1B illustrates the evaluation of neuroprotection in primary rat neurons subject to transient OGD assayed by LDH. […] Cell viability was measured 24 hours after reperusion by […]. Cell viability percentage was calculated relative to 100% cytoxicity from OGD-reperfusion in the presence of vehicle (DMSO). […]

## Cc1ncsc1C(OCCOCCO[N+](=O)[O-])c1ccccc1 (stereo not shown) [GM-30]
[1]
  stability in phosphate buffer: excellent stability

## Cc1ncsc1C(CO[N+](=O)[O-])n1cc(-c2cccnc2)nn1 (stereo not shown) [GN-205]
[2]
  presence in brain tissue (bioavailability in the brain): highly bioavailable in the brain

## Cc1ncsc1C(CO[N+](=O)[O-])c1ccccc1 (stereo not shown) [GN-29]
[2]
  presence in brain tissue (bioavailability in the brain): highly bioavailable in the brain
[3]
  levels of CREB phosphorylated at serine 133: 1.2±0.16 units/mg protein
LaFerla 3×Tg AD Mice
  latency after 24 h in STPA: 277 ± 14 s
LaFerla 3×Tg AD Mice; in words
  cognitive deficit in the transgenic mouse model: reverses a cognitive deficit
TNF-α
  levels of TNF-α: 1.70±0.09 μg/mg protein

## picrotoxin
[4]
  effect of picrotoxin on neuroprotection by test compounds: blocks the neuroprotective actions of the test compounds

## Cc1ncsc1CC[N+](=O)[O-] [GT-1061, reference compound]
[3]
  levels of CREB phosphorylated at serine 133: 1.07±0.11 units/mg protein
LaFerla 3×Tg AD Mice
  latency after 24 h in STPA: 248 ± 35 s
TNF-α
  levels of TNF-α: 2.18±0.34 μg/mg protein

## Cc1ncsc1C(NC(=O)OCCCCO[N+](=O)[O-])c1ccccc1 (stereo not shown) [GN-203]
[1]
  stability in phosphate buffer: excellent stability

## Cc1ncsc1C(c1ccccc1)n1cc(-c2cccnc2)nn1 (stereo not shown) [GN-12]
Scopolamine treated mice
  reversal of cognition deficit (STPA): reverse a cognition deficit
[5]
  attenuation of inflammatory response: attenuation of inflammatory response; also recorded: superior neuroprotective and anti-neuroinflammatory activities
[6]
  neuroprotection: substantial neuroprotection; also recorded: superior neuroprotective and anti-neuroinflammatory activities

## Cc1ncsc1C(NC(=O)C1(CO[N+](=O)[O-])CC1)c1ccccc1 (stereo not shown) [GN-44]
[1]
  stability in phosphate buffer: excellent stability
